Measurements from PMC7243365 (Antiviral research, 2020).

Columns and labels:
[1] = test system: his-tagged HA (H5) protein binding to A549 cells; set-up: species or system influenza A virus H5; conditions: for IC50: read-out: IC50 HA (H5) protein binding to A549 cells
[2] = test system: VN04Low (H5N1); format: cell-based, influenza A virus H5N1; conditions: read-out: IC50 H5N1 plaque reduction
[3] = test system: HIV/H5N1 pseudovirus HA-mediated hemolysis; conditions: read-out: IC50 hemolysis inhibition; pH 5
[4] = test system: VN04Low (H5N1), A/Vietnam/1203/04; format: cell-based, influenza A virus H5N1
[5] = test system: HIV/H5N1 pseudovirus; format: cell-based, influenza A virus H5N1; conditions: 10 µM
[6] = test system: MDCK cells
[7] = test system: A/Puerto Rico/8/34 (H1N1); format: cell-based, influenza A virus H1N1; conditions: read-out: IC50 H1N1 plaque reduction
[8] = test system: H1N1-GFP (A/Puerto Rico/8/34, NS1-GFP); format: cell-based, influenza A virus H1N1
[9] = test system: H1N1-GFP (A/Puerto Rico/8/34, NS1-GFP); format: cell-based, influenza A virus H1N1; conditions: for IC50: read-out: IC50 anti-H1N1
[10] = test system: A/rhea/North Carolina/39482/93 (H7N1); format: cell-based, influenza A virus H7N1
[11] = test system: A/HongKong/2/68 (H3N2); format: cell-based, influenza A virus H3N2
[12] = test system: HIV/H5N1 pseudovirus; format: cell-based, influenza A virus A/Goose/Qinghai/59/05 (H5N1); conditions: read-out: IC50 HIV/H5N1
[13] = test system: A549 cells; assay: Cell viability assay; conditions: 48 h, CellTiter-Glo
[14] = test system: A/Puerto Rico/8/34 (H1N1); conditions: oral administration; ref van Dongen et al., 2019; cited from earlier work

SMILES: CC(=O)N[C@H]1[C@H]([C@H](O)[C@H](O)CO)O[C@@](O[C@H]2[C@@H](O)[C@@H](CO)O[C@@H](O[C@H]3[C@H](O)[C@@H](O)C(O)O[C@@H]3CO)[C@@H]2O)(C(=O)O)C[C@@H]1O (stereo partly shown) [2,3-sialyllactose]
- inhibition of HA (H5) protein binding at 9 mM [1]: inhibited protein binding completely
- IC50 [1]: 1800 µM

SMILES: CC(=O)N[C@H]1[C@H]([C@H](O)[C@H](O)CO)O[C@@](OC[C@H]2O[C@@H](O[C@H]3[C@H](O)[C@@H](O)C(O)O[C@@H]3CO)[C@H](O)[C@@H](O)[C@H]2O)(C(=O)O)C[C@@H]1O (stereo partly shown) [2,6-sialyllactose]
- inhibition of HA (H5) protein binding at 27 mM [1]: 47%
- IC50 [1]: 29500 µM

SMILES: CC(C)N1CCC(NC(=O)c2ccc(Cl)cc2Cl)CC1 [CBS1116, 2,4-dichloro-N-(1-isopropyl-4-piperidinyl) benzamide]
- IC50 [2]: 13.8 µM
- IC50 [3]: 6 µM
- inhibitory activity against VN04Low strain [4]: inhibitory activity against VN04Low strain in a concentration-dependent manner
- HA protein still bound to the cells [1]: 100%
- inhibition of HIV/H5N1 infection, added at 0h [5]: ~ 99%
- inhibition of HIV/H5N1 infection, added at +1h [5]: 75%
- inhibition of HIV/H5N1 infection, added at +2h [5]: 41%
- inhibition of HIV/H5N1 infection, added at -1h [5]: no inhibition
- cell toxicity to MDCK cells [6]: no cell toxicity
- IC50 [7]: 0.4 µM
- cells infected by H1N1-GFP, added at 0h [8]: 0%
- cells infected by H1N1-GFP, added at +1h [8]: 17%
- cells infected by H1N1-GFP, added at +2h [8]: 26%
- cells infected by H1N1-GFP, added at +3h [8]: 33%
- cells infected by H1N1-GFP, added at -1h [8]: 38%
- H1N1-GFP infection at 5 μM [9]: completely blocked
- concentration at which significant inhibition of H1N1 was observed [9]: 5 µM
- IC50 [9]: 0.4 µM
- inhibition against H7N1 [10]: no inhibition
- inhibition against H3N2 [11]: no inhibition
- IC50 [12]: 3.9 µM

SMILES: CC(C)N1CCC(NC(=O)c2c(Cl)cccc2Cl)CC1 [CBS1117]
- CC50 [13]: 274 µM
- IC50 [9]: 0.07 µM

SMILES: CC(=O)Nc1ccc2oc(-c3ccnc(C(=O)N4CCN([C@H](c5ccccc5)c5nnn(C)n5)CC4)c3)nc2c1 [JNJ4796]
- protection of mice against H1N1 challenge [14]: protects mice
